# PubChem BioAssay (NCI)
#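 Step 1: Grow cells in 96-well plates. Step 2: Expose to compound for 48 hours at 5 concentrations. Step 3: Interpolate endpoints linearly; if unreached, use highest concentration. Here, GI50 denotes the concentration required for 50% inhibition of growth. TGI denotes the concentration required for complete inhibition of growth.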
# How the values were obtained:
# Assay in all cases: NCI anticancer screen, dose series, 48 h
# MCF7 breast = test system: MCF7 breast
# NCI/ADR-RES ovarian = test system: NCI/ADR-RES ovarian
# M14 melanoma = test system: M14 melanoma
# NCI-H23 lung = test system: NCI-H23 lung
# COLO 205 colon = test system: COLO 205 colon
# RPMI-8226 leukemia = test system: RPMI-8226 leukemia
# HS 578T breast = test system: HS 578T breast
# OVCAR-5 ovarian = test system: OVCAR-5 ovarian
# OVCAR-4 ovarian = test system: OVCAR-4 ovarian
# IGROV1 ovarian = test system: IGROV1 ovarian
# A498 renal = test system: A498 renal
# BT-549 breast = test system: BT-549 breast
# HT29 colon = test system: HT29 colon
# MDA-MB-435 = test system: MDA-MB-435
# HCT-15 colon = test system: HCT-15 colon
# UACC-62 melanoma = test system: UACC-62 melanoma
# SF-295 CNS = test system: SF-295 CNS
# 786-0 renal = test system: 786-0 renal
# CCRF-CEM leukemia = test system: CCRF-CEM leukemia
# SN12C renal = test system: SN12C renal
# SW-620 colon = test system: SW-620 colon
# SR leukemia = test system: SR leukemia
# SK-MEL-28 melanoma = test system: SK-MEL-28 melanoma
# MALME-3M melanoma = test system: MALME-3M melanoma
# LOX IMVI melanoma = test system: LOX IMVI melanoma
# HCC-2998 colon = test system: HCC-2998 colon
# MOLT-4 leukemia = test system: MOLT-4 leukemia
# NCI-H522 lung = test system: NCI-H522 lung
# DU-145 prostate = test system: DU-145 prostate
# HOP-92 NSCLC = test system: HOP-92 NSCLC
# SNB-75 CNS = test system: SNB-75 CNS
# SK-MEL-5 melanoma = test system: SK-MEL-5 melanoma
# U251 CNS = test system: U251 CNS
# SK-MEL-2 melanoma = test system: SK-MEL-2 melanoma
# CAKI-1 renal = test system: CAKI-1 renal
# RXF 393 renal = test system: RXF 393 renal
# OVCAR-8 ovarian = test system: OVCAR-8 ovarian
# HL-60(TB) leukemia = test system: HL-60(TB) leukemia
# A549 NSCLC = test system: A549 NSCLC
# MDA-MB-231 breast = test system: MDA-MB-231 breast
# KM12 colon = test system: KM12 colon
# NCI-H226 lung = test system: NCI-H226 lung
# ACHN renal = test system: ACHN renal
# TK-10 renal = test system: TK-10 renal
# NCI-H460 lung = test system: NCI-H460 lung
# HOP-62 NSCLC = test system: HOP-62 NSCLC
# SK-OV-3 ovarian = test system: SK-OV-3 ovarian
# PC-3 prostate = test system: PC-3 prostate
# T-47D breast = test system: T-47D breast
# UACC-257 melanoma = test system: UACC-257 melanoma
# HCT-116 colon = test system: HCT-116 colon
# UO-31 renal = test system: UO-31 renal
# SNB-19 CNS = test system: SNB-19 CNS
# K-562 leukemia = test system: K-562 leukemia
# OVCAR-3 ovarian = test system: OVCAR-3 ovarian
# SF-539 CNS = test system: SF-539 CNS
# SF-268 CNS = test system: SF-268 CNS
structure (smiles),measurement,setting,value
O=C1NC(=N[C@@H](CO)c2ccccc2)S/C1=C\c1ccc2ncccc2c1,GI50,MCF7 breast,8.38 µM
same,TGI,MCF7 breast,> 25 µM
same,GI50,NCI/ADR-RES ovarian,> 25 µM
same,TGI,NCI/ADR-RES ovarian,> 25 µM
same,GI50,M14 melanoma,6.16 µM
same,TGI,M14 melanoma,> 25 µM
same,GI50,NCI-H23 lung,8.92 µM
same,TGI,NCI-H23 lung,> 25 µM
same,GI50,COLO 205 colon,5.5 µM
same,TGI,COLO 205 colon,15.9 µM
same,GI50,RPMI-8226 leukemia,8.16 µM
same,TGI,RPMI-8226 leukemia,> 25 µM
same,GI50,HS 578T breast,4.84 µM
same,TGI,HS 578T breast,> 25 µM
same,GI50,OVCAR-5 ovarian,> 25 µM
same,TGI,OVCAR-5 ovarian,> 25 µM
same,GI50,OVCAR-4 ovarian,12.5 µM
same,TGI,OVCAR-4 ovarian,> 25 µM
same,GI50,IGROV1 ovarian,4.71 µM
same,TGI,IGROV1 ovarian,> 18.3 µM
same,GI50,A498 renal,4.29 µM
same,TGI,A498 renal,> 21.9 µM
same,GI50,BT-549 breast,4.07 µM
same,TGI,BT-549 breast,> 18.5 µM
same,GI50,HT29 colon,6.63 µM
same,TGI,HT29 colon,> 25 µM
same,GI50,MDA-MB-435,3.65 µM
same,TGI,MDA-MB-435,15.3 µM
same,GI50,HCT-15 colon,6.19 µM
same,TGI,HCT-15 colon,> 25 µM
same,GI50,UACC-62 melanoma,10.4 µM
same,TGI,UACC-62 melanoma,> 25 µM
same,GI50,SF-295 CNS,14.4 µM
same,TGI,SF-295 CNS,> 25 µM
same,GI50,786-0 renal,> 21.9 µM
same,TGI,786-0 renal,> 25 µM
same,GI50,CCRF-CEM leukemia,5.86 µM
same,TGI,CCRF-CEM leukemia,21.2 µM
same,GI50,SN12C renal,8.1 µM
same,TGI,SN12C renal,> 25 µM
same,GI50,SW-620 colon,7.25 µM
same,TGI,SW-620 colon,> 25 µM
same,GI50,SR leukemia,1.53 µM
same,TGI,SR leukemia,12.7 µM
same,GI50,SK-MEL-28 melanoma,> 20.2 µM
same,TGI,SK-MEL-28 melanoma,> 25 µM
same,GI50,MALME-3M melanoma,13.4 µM
same,TGI,MALME-3M melanoma,> 25 µM
same,GI50,LOX IMVI melanoma,6.15 µM
same,TGI,LOX IMVI melanoma,> 18.3 µM
same,GI50,HCC-2998 colon,11.2 µM
same,TGI,HCC-2998 colon,> 25 µM
same,GI50,MOLT-4 leukemia,9.19 µM
same,TGI,MOLT-4 leukemia,> 25 µM
same,GI50,NCI-H522 lung,5.93 µM
same,TGI,NCI-H522 lung,> 20 µM
same,GI50,DU-145 prostate,13.8 µM
same,TGI,DU-145 prostate,> 25 µM
same,GI50,HOP-92 NSCLC,11.1 µM
same,TGI,HOP-92 NSCLC,> 25 µM
same,GI50,SNB-75 CNS,3.64 µM
same,TGI,SNB-75 CNS,> 25 µM
same,GI50,SK-MEL-5 melanoma,9.14 µM
same,TGI,SK-MEL-5 melanoma,> 25 µM
same,GI50,U251 CNS,11 µM
same,TGI,U251 CNS,> 25 µM
same,GI50,SK-MEL-2 melanoma,4.73 µM
same,TGI,SK-MEL-2 melanoma,12.9 µM
same,GI50,CAKI-1 renal,3.06 µM
same,TGI,CAKI-1 renal,> 25 µM
same,GI50,RXF 393 renal,5.84 µM
same,TGI,RXF 393 renal,> 25 µM
same,GI50,OVCAR-8 ovarian,8.93 µM
same,TGI,OVCAR-8 ovarian,> 25 µM
same,GI50,HL-60(TB) leukemia,6.07 µM
same,TGI,HL-60(TB) leukemia,19.4 µM
same,GI50,A549 NSCLC,9.83 µM
same,TGI,A549 NSCLC,> 25 µM
same,GI50,MDA-MB-231 breast,> 23.1 µM
same,TGI,MDA-MB-231 breast,> 25 µM
same,GI50,KM12 colon,10.8 µM
same,TGI,KM12 colon,> 25 µM
same,GI50,NCI-H226 lung,11.7 µM
same,TGI,NCI-H226 lung,> 25 µM
same,GI50,ACHN renal,3.97 µM
same,TGI,ACHN renal,> 25 µM
same,GI50,TK-10 renal,4.92 µM
same,TGI,TK-10 renal,> 25 µM
same,GI50,NCI-H460 lung,7.75 µM
same,TGI,NCI-H460 lung,> 25 µM
same,GI50,HOP-62 NSCLC,12.7 µM
same,TGI,HOP-62 NSCLC,> 25 µM
same,GI50,SK-OV-3 ovarian,8.1 µM
same,TGI,SK-OV-3 ovarian,> 25 µM
same,GI50,PC-3 prostate,> 25 µM
same,TGI,PC-3 prostate,> 25 µM
same,GI50,T-47D breast,15.5 µM
same,TGI,T-47D breast,> 25 µM
same,GI50,UACC-257 melanoma,13.9 µM
same,TGI,UACC-257 melanoma,> 25 µM
same,GI50,HCT-116 colon,5.22 µM
same,TGI,HCT-116 colon,> 25 µM
same,GI50,UO-31 renal,4.53 µM
same,TGI,UO-31 renal,> 21.2 µM
same,GI50,SNB-19 CNS,24.2 µM
same,TGI,SNB-19 CNS,> 25 µM
same,GI50,K-562 leukemia,9.04 µM
same,TGI,K-562 leukemia,> 25 µM
same,GI50,OVCAR-3 ovarian,14.8 µM
same,TGI,OVCAR-3 ovarian,> 25 µM
same,GI50,SF-539 CNS,5.86 µM
same,TGI,SF-539 CNS,22 µM
same,GI50,SF-268 CNS,14.1 µM
same,TGI,SF-268 CNS,> 25 µM
